# Source: patent US6656911B2, “Serine protease inhibitors” (Cortech, Inc., priority 1994, dated 2003)
# Target: T1, human neutrophil elastase (HNE) (Homo sapiens, UniProt P08246)
# T1 sequence (P08246 30-267): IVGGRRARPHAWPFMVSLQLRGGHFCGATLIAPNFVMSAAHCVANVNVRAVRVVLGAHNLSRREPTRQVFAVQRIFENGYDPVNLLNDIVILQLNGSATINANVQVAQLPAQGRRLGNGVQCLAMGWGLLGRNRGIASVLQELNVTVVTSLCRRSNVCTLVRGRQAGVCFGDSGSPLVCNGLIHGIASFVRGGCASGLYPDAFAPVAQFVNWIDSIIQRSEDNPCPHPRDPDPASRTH
# Assay: HNE Ki of CE compounds, tested as described in WO 96/16080
# Type: biochemical
# Conditions: read-out: HNE Ki
row,Ki,Structure (SMILES)
1,44 nM,"CC(C)C(NC(=O)CN1C(=O)C(Cc2ccccc2)N(CCN2CCOCC2)C1=O)C(=O)c1noc(Cc2cccc(C(F)(F)F)c2)n1 [CE2180, 1-(N-Morpholinoethyl)-5-(R)-benzyl-2,4-imidazolidinedione-N-[1-(3-[5-(3-trifluoromethylbenzyl)-1,2,4-oxadiazolyl]carbonyl)-2-(R,S)-methylpropyl]acetamide]"
2,46 nM,"CC(C)C(NC(=O)CN1C(=O)C(Cc2ccccc2)N(CCN2CCOCC2)C1=O)C(=O)c1noc(Cc2cccc(C(F)(F)F)c2)n1 [CE2181, 1-(N-Morpholinoethyl)-5-(S)-benzyl-2,4-imidazolidinedione-N-[1-(3-[5-(3-trifluoromethylbenzyl)-1,2,4-oxadiazolyl]carbonyl)-2-(R,S)-methylpropyl]acetamide]"
3,54 nM,"CC(C)C(NC(=O)CN1C(=O)C(c2ccccc2)N(C)C1=O)C(=O)c1noc(Cc2cccc(C(F)(F)F)c2)n1 [CE2182, 5-(R,S)-Phenyl-1-methyl-2,4-imidazolidinedione-N-[1-(3-[5-(3-trifluoromethylbenzyl)-1,2,4-oxadiazolyl]carbonyl)-2-(S)-methylpropyl]acetamide]"
4,0.23 nM,"Cc1cccc(Cc2nnc(C(=O)C(NC(=O)C3Cc4ccccc4CN3C(=O)C(NC(=O)OCc3ccccc3)C(C)C)C(C)C)o2)c1 [CE2183, Benzyloxycarbonyl-L-valyl-(1,2,3,4-tetrahydroisoquinoline)-3-N-[1-(2-[5-(3-methylbenzyl)-1,3,4-oxadiazolyl]carbonyl)-2-(R,S)-methylpropyl]amide]"
5,0.27 nM,"CC(C)[C@H](NC(=O)[C@@H]1CCCN1C(=O)[C@@H](NC(=O)OCc1ccncc1)C(C)C)C(=O)c1noc(Cc2cccc(C(F)(F)F)c2)n1 [CE2185, 4-Pyridylmethyleneoxycarbonyl-L-valyl-N-[1-(3-[5-(3-trifluoromethylbenzyl)-1,2,4-oxadiazolyl]carbonyl)-2-(S)-methylpropyl]-L-prolinamide]"
6,0.037 nM,"Cc1cccc(Cc2nnc(C(=O)[C@@H](NC(=O)[C@@H]3CCCN3C(=O)[C@@H](NC(=O)OCc3ccncc3)C(C)C)C(C)C)o2)c1 [CE2186, 4-Pyridylmethyleneoxycarbonyl -L-valyl-N-[1-(2-[5-(3-methylbenzyl)-1,3,4-oxadiazolyl]carbonyl)-2-(S)-methylpropyl]-L-prolinamide]"
7,42 nM,CC(C)[C@H](NC(=O)CN1C(=O)CN(Cc2ccc3c(c2)OCCO3)C(=O)[C@@H]1Cc1ccccc1)C(=O)c1noc(Cc2cccc(C(F)(F)F)c2)n1 [CE2187]
8,99 nM,"CC(C)[C@H](NC(=O)CN1C(=O)CN(Cc2ccccc2)C1=O)C(=O)c1noc(Cc2cccc(C(F)(F)F)c2)n1 [CE2189, 1-Benzyl-2,4-imidazolidinedione-N-[1-(3-[5-(3-trifluoromethylbenzyl)-1,2,4-oxadiazolyl]carbonyl)-2-(S)-methylpropyl]acetamide]"
9,29 nM,"Cc1cccc(Cc2nnc(C(=O)[C@@H](NC(=O)CN3C(=O)CN(C(=O)OCc4ccccc4)C[C@H]3Cc3ccccc3)C(C)C)o2)c1 [CE2190, [1-Benzyloxycarbonyl-5-(R)-benzylpipeazin-3-one]-N-[1-(2-[5-(3-methylbenzyl)-1,3,4-oxadiazolyl]carbonyl)-2-(S)-methylpropyl]acetamide]"
10,36 nM,"CC(C)C(NC(=O)CN1C(=O)C(c2ccccc2)N(CCN2CCOCC2)C1=O)C(=O)c1noc(Cc2cccc(C(F)(F)F)c2)n1 [CE2193, 1-(N-Morpholinoethyl)-5-(R,S)-phenyl-2,4-imidazolidindione-N-[1-(3-[5-(3-trifluoromethylbenzyl)-1,2,4-oxadiazolyl]carbonyl)-2-(R,S)-methylpropyl]acetamide]"
11,96 nM,"Cc1cccc(Cc2nnc(C(=O)C(NC(=O)CN3C(=O)CNCC3Cc3ccccc3)C(C)C)o2)c1 [CE2196, (6-(R)-Benzylpiperazin-2-one)-N-[1-(2-[5-(3-methylbenzyl)-1,3,4-oxadiazolyl]carbonyl)-2-(R,S)-methylpropyl]acetamide]"
12,4.8 nM,"Cc1cccc(Cc2nnc(C(=O)[C@@H](NC(=O)CN3C(=O)CN(Cc4ccc5c(c4)OCCO5)C(=O)[C@H]3Cc3ccccc3)C(C)C)o2)c1 [CE2197, 4-[1-(3,4-Ethylenedioxybenzyl)-3-(R)-benzylpiperazine-2,5-dione]-N-[1-(2-[5-(3-methylbenzyl)-1,3,4-oxadiazolyl]carbonyl)-2-(S)-methylpropyl]acetamide]"
13,3.1 nM,"CC(C)[C@H](NC(=O)CN1C(=O)NC(c2ccccc2)C1=O)C(=O)c1noc(Cc2cccc(C(F)(F)F)c2)n1 (stereo partly drawn) [CE2198, 4-(R,S)-Phenyl-2,5-imidazolidinedione-N-[1-(3-[5-(3-trifluoromethylbenzyl)-1,2,4-oxadiazolyl]carbonyl)-2-(S)-methylpropyl]acetamide]"
14,13.7 nM,"CC(C)[C@H](NC(=O)CN1C(=O)NC(c2ccc(N(C)C)cc2)C1=O)C(=O)c1noc(Cc2cccc(C(F)(F)F)c2)n1 (stereo partly drawn) [CE2200, [4-(R,S)-(4-Dimethylaminophenyl)]-2,5-imidazolidinedione-N-[1-(3-[5-(3-trifluoromethylbenzyl)-1,2,4-oxadiazolyl]carbonyl)-2-(S)-methylpropyl]acetamide]"
15,0.12 nM,"Cc1cccc(Cc2nnc(C(=O)[C@@H](NC(=O)[C@@H]3CCCN3C(=O)[C@@H](NC(=O)OC(C)C)C(C)C)C(C)C)o2)c1 [CE2202, Isopropyloxycarbonyl-L-valyl-N-[1-(2-[5-(3-methylbenzyl)-1,3,4-oxadiazolyl]carbonyl)-2-(S)-methylpropyl]-L-prolinamide]"
16,40 nM,"Cc1cccc(Cc2nnc(C(=O)C(NC(=O)CN3CC(=O)NC[C@H]3c3ccccc3)C(C)C)o2)c1 (stereo partly drawn) [CE2208, (2-(R)-Phenylpiperazin-5-one)-N-[1-(2-[5-(3-methylbenzyl)-1,3,4-oxadiazolyl]carbonyl)-2-(R,S)-methylpropyl]acetamide]"
17,22.7 nM,"Cc1cccc(Cc2nnc(C(=O)[C@@H](NC(=O)CN(Cc3ccccc3)C(=O)Cc3ccccc3)C(C)C)o2)c1 [CE2210, (N-Benzylcarbonyl)-N-(benzyl)glycyl-N-[1-(2-[5-(3-methylbenzyl)-1,3,4,-oxadiazolyl]carbonyl)-2-(S)-methylpropyl]amide]"
18,537 nM,"CC(C)[C@H](NC(=O)CN1Cc2ccccc2NC1=O)C(=O)c1noc(Cc2cccc(C(F)(F)F)c2)n1 [CE2219, 1,4-Quinazolin-2-one-N-[1-(3-[5-(3-trifluoromethylbenzyl)-1,2,4-oxadiazolyl]carbonyl)-2-(S)-methylpropyl]acetamide]"
19,52 nM,"Cc1cccc(Cc2nc(C(=O)C(NC(=O)[C@@H]3Cc4cccc5c4N3C(=O)[C@@H](N)CC5)C(C)C)no2)c1 (stereo partly drawn) [CE2220, (2S,5S)-5-Amino-1,2,4,5,6,7-hexahydroazepino-[3.2.1]-indole-4-one-carbonyl-N-[1-(3-[5-(3-methylbenzyl)-1,2,4-oxadiazolyl]carbonyl)-2-(R,S)-methylpropyl]amide]"

row,Structure (SMILES),Ki
1,"Cc1cccc(Cc2nnc(C(=O)[C@@H](NC(=O)CN(C(=O)c3ccc[nH]3)C3CCc4ccccc43)C(C)C)o2)c1 (stereo partly drawn) [CE2195, (Pyrrole-2-carbonyl)-N-[1-(R,S)-indanyl]glycyl-N-[1-(2-[5-(3-methylbenzyl)-1,3,4-oxadiazolyl]carbonyl)-2-(S)-methylpropyl]amide]",10.6 nM
2,"Cc1cccc(Cc2nnc(C(=O)[C@@H](NC(=O)CN3CCC(n4c(=O)[nH]c5ccccc54)CC3)C(C)C)o2)c1 [CE2212, 3-[1-(4-Piperidine)]-benzimidazolidin-2-one-N-[1-(2-[5-(3-methylbenzyl)-1,3,4-oxadiazolyl]carbonyl)-2-(S)-methylpropyl]acetamide]",124 nM
